Like-named read-outs stand apart in the source and are kept apart here.
Legend:
CSF1R = CSF1R (Homo sapiens, UniProt P07333); assay: KINOMEscan competition binding assay for CSF1R; parameters: DNA tag for qPCR (not a peptide); host or cells: E. coli/T7 phage or HEK-293
Method in brief: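 Values are either % inhibition at 0.1 uM, relative to DMSO (100% Ctrl) and a control compound (0% Ctrl), or Kd from an 11-point 3-fold series fitted with Hill slope −1. DNA-tagged kinase binds immobilized ligand beads with compound for 1 h at room temperature, and eluted kinase is measured by qPCR.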

Axl = biological target: T1, Axl (Homo sapiens, UniProt P30530); assay: LanthaScreen Eu kinase binding assay for Axl; settings: read-out: Axl kinase binding activity (Kd)
T1 sequence (P30530 26-894): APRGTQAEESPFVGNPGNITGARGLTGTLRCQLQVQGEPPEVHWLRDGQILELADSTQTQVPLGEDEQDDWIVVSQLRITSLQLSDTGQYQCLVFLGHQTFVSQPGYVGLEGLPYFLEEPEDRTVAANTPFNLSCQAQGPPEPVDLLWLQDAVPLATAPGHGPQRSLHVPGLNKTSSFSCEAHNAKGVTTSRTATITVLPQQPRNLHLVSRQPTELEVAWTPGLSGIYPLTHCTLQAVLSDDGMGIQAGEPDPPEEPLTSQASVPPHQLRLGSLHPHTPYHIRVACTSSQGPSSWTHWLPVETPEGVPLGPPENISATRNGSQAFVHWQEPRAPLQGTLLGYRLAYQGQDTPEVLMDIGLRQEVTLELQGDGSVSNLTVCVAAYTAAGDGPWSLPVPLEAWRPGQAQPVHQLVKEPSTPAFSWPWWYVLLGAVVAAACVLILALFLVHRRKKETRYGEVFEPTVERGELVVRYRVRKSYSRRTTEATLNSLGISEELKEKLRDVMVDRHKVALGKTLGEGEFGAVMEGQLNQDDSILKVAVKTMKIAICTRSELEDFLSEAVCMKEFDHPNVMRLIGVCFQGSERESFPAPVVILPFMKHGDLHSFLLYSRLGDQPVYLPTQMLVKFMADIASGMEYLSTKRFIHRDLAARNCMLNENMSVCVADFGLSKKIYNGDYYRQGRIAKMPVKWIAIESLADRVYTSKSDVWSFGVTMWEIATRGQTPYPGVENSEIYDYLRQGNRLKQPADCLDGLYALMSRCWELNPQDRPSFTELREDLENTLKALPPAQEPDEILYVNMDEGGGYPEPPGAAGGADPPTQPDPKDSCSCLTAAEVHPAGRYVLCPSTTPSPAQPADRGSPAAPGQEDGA
Method in brief: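 Kd values come from control-normalized FRET loss, referenced to DMSO vehicle wells, after 1 h at room temperature. Each compound was serially diluted over eight steps in DMSO and competed against Tracer 236 (Alexa Fluor 647) for the kinase, which was tagged by a Eu anti-GST antibody.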

[1] = read-out: CSF1R kinase binding activity, Percent (%) inhibition
[2] = read-out: CSF1R kinase binding activity, Range

Sequence of CSF1R (P07333 20-972): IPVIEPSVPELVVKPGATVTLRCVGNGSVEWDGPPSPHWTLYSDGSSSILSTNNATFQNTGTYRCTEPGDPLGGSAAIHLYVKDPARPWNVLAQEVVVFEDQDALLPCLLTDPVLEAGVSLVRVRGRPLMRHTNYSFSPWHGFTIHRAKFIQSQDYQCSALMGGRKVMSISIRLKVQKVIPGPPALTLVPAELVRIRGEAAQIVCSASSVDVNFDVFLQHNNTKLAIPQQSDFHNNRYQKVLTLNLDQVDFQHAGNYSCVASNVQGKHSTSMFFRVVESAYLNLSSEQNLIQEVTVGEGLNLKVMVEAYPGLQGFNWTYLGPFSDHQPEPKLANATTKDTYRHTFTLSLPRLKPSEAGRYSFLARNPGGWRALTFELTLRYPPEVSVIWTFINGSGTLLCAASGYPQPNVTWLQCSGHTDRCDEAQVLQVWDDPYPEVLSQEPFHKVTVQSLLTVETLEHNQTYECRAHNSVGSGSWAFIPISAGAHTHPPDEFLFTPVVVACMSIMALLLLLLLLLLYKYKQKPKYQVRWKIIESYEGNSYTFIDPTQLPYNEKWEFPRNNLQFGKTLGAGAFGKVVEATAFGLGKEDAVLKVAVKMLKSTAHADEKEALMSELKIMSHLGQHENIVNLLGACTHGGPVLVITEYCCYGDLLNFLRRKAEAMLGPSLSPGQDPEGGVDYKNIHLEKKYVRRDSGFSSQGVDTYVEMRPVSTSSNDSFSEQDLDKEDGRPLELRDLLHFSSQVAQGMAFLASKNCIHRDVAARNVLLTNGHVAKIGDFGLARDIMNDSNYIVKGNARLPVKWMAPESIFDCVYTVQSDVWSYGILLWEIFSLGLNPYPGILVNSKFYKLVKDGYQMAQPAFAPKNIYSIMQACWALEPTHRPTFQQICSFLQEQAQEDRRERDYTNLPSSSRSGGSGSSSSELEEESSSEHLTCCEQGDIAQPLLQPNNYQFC

| inhibition at 0.1 µM (CSF1R; [1]) | inhibition at 0.1 µM (CSF1R; [2]) | Kd (Axl) | Kd (CSF1R; read-out: CSF1R kinase binding activity (Kd)) | Compound |
| --- | --- | --- | --- | --- |
| 99% | ≥ 80% | < 100 nM | – | COc1cc2nccc(Oc3ccc(NC(=O)c4nn(C5CCN(C)C5)cc4OCC(F)(F)F)nc3)c2cc1OC (stereo not shown) [Compound 91] |
| 71% | 50 to 80% | < 100 nM | – | COc1cc2nccc(Oc3ccc(NC(=O)c4nn(CC(C)C)cc4OCC(F)(F)F)cc3)c2cc1OC [Compound 87] |
| 95% | ≥ 80% | < 100 nM | – | COc1cc2nccc(Oc3ccc(NC(=O)c4nn(C5CCOCC5)cc4OCC(F)(F)F)nc3)c2cc1OC [Compound 90] |
| 11% | < 50% | 100 to 500 nM | – | COc1cc2nccc(Oc3ccc(NC(=O)c4nn(C5CCNC5)cc4OCC(F)(F)F)cc3)c2cc1OC (stereo not shown) [Compound 86] |
| 65% | 50 to 80% | < 100 nM | – | COc1cc2nccc(Oc3ccc(NC(=O)c4nn(C5CCN(C)C5)cc4OCC(F)(F)F)c(F)c3)c2cc1OC (stereo not shown) [Compound 94] |
| 89% | ≥ 80% | < 100 nM | – | COc1cc2nccc(Oc3ccc(NC(=O)c4nn(CCC5CCCC5)cc4OCC(F)(F)F)nc3)c2cc1OC [Compound 93] |
| 21% | < 50% | 100 to 500 nM | – | COc1cc2nccc(Oc3ccc(NC(=O)c4nn(CCN)cc4OCC(F)(F)F)cc3)c2cc1OC [Compound 88] |
| 56% | 50 to 80% | < 100 nM | – | COc1cc2nccc(Oc3ccc(NC(=O)c4nn(CC(C)O)cc4OCC(F)(F)F)cc3)c2cc1OC (stereo not shown) [Compound 89] |
| 61% | 50 to 80% | < 100 nM | – | COc1cc2nccc(Oc3ccc(NC(=O)c4nn(CC5COC5)cc4OCC(F)(F)F)c(F)c3)c2cc1OC [Compound 95] |

More lines, now with the values behind:

| Compound | inhibition at 0.1 µM (CSF1R; [1]) | inhibition at 0.1 µM (CSF1R; [2]) | Kd (Axl) | Kd (CSF1R; read-out: CSF1R kinase binding activity (Kd)) |
| --- | --- | --- | --- | --- |
| COc1cc2nccc(Oc3ccc(NC(=O)c4nn(C5CCNC5)cc4OCC(F)(F)F)cc3F)c2cc1OC (stereo not shown) [Compound 78] | 11% | < 50% | < 100 nM | – |
| COc1cc2nccc(Oc3ccc(NC(=O)c4nn(CC(C)O)cc4OCC(F)(F)F)cc3F)c2cc1OC (stereo not shown) [Compound 80] | 64% | 50 to 80% | < 100 nM | – |
| COc1cc2nccc(Oc3ccc(NC(=O)c4nn(C5CCNC5)cc4OCC(F)(F)F)cc3C)c2cc1OC (stereo not shown) [Compound 81] | 46% | < 50% | ≥ 500 nM | – |
| COc1cc2nccc(Oc3ccc(NC(=O)c4nn(CC(C)O)cc4OCC(F)(F)F)cc3C)c2cc1OC (stereo not shown) [Compound 83] | 97% | ≥ 80% | < 100 nM | – |
| COc1cc2nccc(Oc3ccc(NC(=O)c4nn(C5CC5)cc4OCC(F)(F)F)nc3)c2cc1OC [Compound 5] | 97% | ≥ 80% | < 100 nM | < 100 nM |
| COc1cc2nccc(Oc3ccc(NC(=O)c4nn(CCN)cc4OCC(F)(F)F)cc3F)c2cc1OC [Compound 79] | 12% | < 50% | < 100 nM | – |
| COc1cc2nccc(Oc3ccc(NC(=O)c4nn(CCN)cc4OCC(F)(F)F)cc3C)c2cc1OC [Compound 82] | 35% | < 50% | ≥ 500 nM | – |
| COc1cc2nccc(Oc3ccc(NC(=O)c4nn(C5CCOC5)cc4OCC(F)(F)F)c(F)c3)c2cc1OC (stereo not shown) [Compound 77] | 76% | 50 to 80% | < 100 nM | – |
| COc1cc2nccc(Oc3ccc(NC(=O)c4nn(C5CCOC5)cc4OCC(F)(F)F)cc3C)c2cc1OC (stereo not shown) [Compound 85] | 78% | 50 to 80% | < 100 nM | – |
| COCCn1cc(OCC(F)(F)F)c(C(=O)Nc2ccc(Oc3ccnc4cc(OC)c(OC)cc34)c(C)c2)n1 [Compound 84] | 97% | ≥ 80% | < 100 nM | – |

Source: patent US12162858B2, “Quinoline derivatives as inhibitors of AXL/MER RTK and CSF1R” (QURIENT CO., LTD., priority 2018, dated 2024)
